Assay results published in patent US12528812B2 (Genentech, Inc., priority 2020, dated 2026).
Like-named read-outs stand apart in the source and are kept apart here.

Key:
[1] = molecular target: T1, recombinant human JAK1 kinase domain protein (Residues 854-1154) (Homo sapiens, UniProt P23458); assay: JAK1 biochemical assay (LabChip mobility shift, Ki); details: read-out: Biochem JAK1 Ki
T1 construct: human JAK1 kinase domain protein (Residues 854-1154); purchased Proteros Biostructures GmbH (Martinsried, Germany); host or cells: insect cells

[2] = tested on: IL-13-stimulated STAT6 phosphorylation in human lung bronchial epithelial BEAS-2B cell line; assay: P-STAT6 BEAS-2B + IL-13 cell assay; assay type: cell-based; details: BEAS2B cells, IL13 stimulation, read-out: Cellular JAK1 PSTAT6 BEAS2B + IL13
In short: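 Phospho-STAT6 (Tyr641) was quantified in lysates by MSD electrochemiluminescence after human IL-13 challenge (250 ng/mL stock, 15 min, 37 °C). Before that, BEAS-2B cells cultured 48 h had 1 h compound exposure over 10 concentrations. Percent of control was fitted to a four-parameter logistic model to give IC50.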

[3] = molecular target: Recombinant human JAK2 kinase domain protein (Residues 812-1132) (Homo sapiens, UniProt O60674); assay: JAK2 biochemical assay (LabChip mobility shift, Ki); details: Biochem JAK2 Ki
Recombinant human JAK2 kinase domain protein (Residues 812-1132), sequence (O60674 812-1132): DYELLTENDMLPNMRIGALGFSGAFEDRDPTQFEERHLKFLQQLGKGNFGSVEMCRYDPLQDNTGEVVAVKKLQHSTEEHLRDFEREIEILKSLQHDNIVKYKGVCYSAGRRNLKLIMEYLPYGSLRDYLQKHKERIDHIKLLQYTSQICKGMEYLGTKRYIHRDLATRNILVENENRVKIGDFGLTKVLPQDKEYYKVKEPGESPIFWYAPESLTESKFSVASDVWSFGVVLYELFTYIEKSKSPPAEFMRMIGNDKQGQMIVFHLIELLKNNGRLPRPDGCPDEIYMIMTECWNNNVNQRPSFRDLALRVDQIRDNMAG
Procedure: The in vitro biochemical assays quantify JAK-catalyzed phosphorylation of a synthetic peptide, as detected using a LabChip® EZ Reader II microfluidic mobility shift instrument (PerkinElmer; Waltham, MA). […] Y-1B is fluorescently labeled on the N-terminus with 5-FAM (5-carboxyfluorescein) and contains a single tyrosine residue (Y) that can be phosphorylated by JAK activity. The substrate peptide stock is prepared in DMSO at 5 mM. […] In each titration experiment, test compound was tested in duplicate at each of the twelve concentrations. Blank reactions contained ATP, peptide, and DMSO, but no JAK or test compound, whereas uninhibited control reactions contained ATP, peptide, JAK, and DMSO, but no test compound.
Peptide plus ATP mixture (24 μL) was added to 1 μL of test compound in DMSO (or DMSO alone). The reactions were initiated by adding 25 μL of JAK enzyme to the inhibitor/peptide/ATP mixture before thoroughly mixing the resultant solution. Reactions were incubated at room temperature (22° C.-23° C.) in a final volume of 50 μL per well in 384-well plates. After a 30-minute incubation, the reactions were stopped by adding 25 μL of 150 mM ethylenediaminetetraacetic acid in 100 mM HEPES buffer (pH 7.2) containing 0.015% Brij 35 to each well.
In each reaction, the residual Y-1B substrate and the phospho-peptide product generated were separated using the EZ Reader II instrument. Electrophoretic separation of molecules of product from molecules of substrate was achieved using downstream and upstream voltages of −500 and −2600 V, respectively, at an operating pressure of −1.3 psi.
The extent (or percent) of conversion of substrate to product was calculated from the corresponding peak heights in the electropherogram using HTS Well Analyzer software, Version 5.2 (PerkinElmer), and the following equation (Equation 1): conversion=[P÷(S+P)]×100 Equation 1% where S and P represent the peak heights of the substrate and product, respectively. After any baseline signal from blank wells containing no JAK was subtracted from the signal of all test wells, the % conversion data were converted to fractional activity as shown in Equation 2, where vi and vo are the % conversion in the presence and absence of test compound, respectively.

T1 sequence (P23458 854-1154): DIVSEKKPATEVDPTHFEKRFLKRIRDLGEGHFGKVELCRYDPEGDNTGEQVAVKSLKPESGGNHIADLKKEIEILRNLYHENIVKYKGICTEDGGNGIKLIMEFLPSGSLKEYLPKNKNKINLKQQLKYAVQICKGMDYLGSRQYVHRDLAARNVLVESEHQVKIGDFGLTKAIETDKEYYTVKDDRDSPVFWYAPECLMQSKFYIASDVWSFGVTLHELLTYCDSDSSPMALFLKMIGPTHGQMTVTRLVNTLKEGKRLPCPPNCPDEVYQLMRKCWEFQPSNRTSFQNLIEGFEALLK

Compound | Ki [1] [nM] | IC50 ([2]; Homo sapiens, BEAS-2B) [nM] | Ki [3] [nM] | IC50 [2] [nM]
CN1CC(O)(c2cccc(Oc3ccc(OC(F)F)c(-c4nn(C5CCOCC5)cc4NC(=O)c4cnn5cccnc45)c3)c2)C1 [Example 98, N-[3-[2-(difluoromethoxy)-5-[3-(3-hydroxy-l-methyl-azetidin-3-yl)phenoxy]phenyl]-1-tetrahydropyran-4-yl-pyrazol-4-yl]pyrazolo[1,5-a]pyrimidine-3-carboxamide] | 0.87 | 61 | 2.8 | –
Cn1cc(NC(=O)c2cnn3cccnc23)c(-c2cc(Oc3cccc(CN4CCOC[C@@H]4CO)c3)ccc2OC(F)F)n1 (racemic) [Example 93, N-[3-[2-(difluoromethoxy)-5-[3-[[rac-(3R)-3-(hydroxymethyl)morpholin-4-yl]methyl]phenoxy]phenyl]-1-methyl-pyrazol-4-yl]pyrazolo[1,5-a]pyrimidine-3-carboxamide] | 1.2 | 89 | 0.65 | –
Cc1c(Oc2ccc(OC(F)F)c(-c3nn(C)cc3NC(=O)c3cnn4cccnc34)c2)cnn1CCO [Example 155, N-[3-[2-(difluoromethoxy)-5-[1-(2-hydroxyethyl)-5-methyl-pyrazol-4-yl]oxy-phenyl]-1-methyl-pyrazol-4-yl]pyrazolo[1,5-a]pyrimidine-3-carboxamide] | 0.31 | 25 | 0.21 | –
Cn1cc(NC(=O)c2cnn3cccnc23)c(-c2cc(Oc3cncc(CN)c3)ccc2OC(F)F)n1 [Example 77, N-[3-[5-[[5-(aminomethyl)-3-pyridyl]oxy]-2-(difluoromethoxy)phenyl]-1-methyl-pyrazol-4-yl]pyrazolo[1,5-a]pyrimidine-3-carboxamide] | 2.6 | 33 | 2.5 | –
O=C(Nc1cn(C2COC2)nc1-c1cc(Oc2ccc3c(c2)CNCC3)ccc1OC(F)F)c1cnn2cccnc12 [Example 157, N-[3-[2-(difluoromethoxy)-5-(1,2,3,4-tetrahydroisoquinolin-7-yloxy)phenyl]-1-(oxetan-3-yl)pyrazol-4-yl]pyrazolo[1,5-a]pyrimidine-3-carboxamide] | 0.31 | 28 | 0.28 | –
Cn1cc(NC(=O)c2cnn3cccnc23)c(-c2cc(Oc3cnn(CC4(O)CN5CCC4CC5)c3)ccc2OC(F)F)n1 (stereo not drawn) [Example 200, N-[3-[2-(difluoromethoxy)-5-[1-[(3-hydroxyquinuclidin-3-yl)methyl]pyrazol-4-yl]oxy-phenyl]-1-methyl-pyrazol-4-yl]pyrazolo[1,5-a]pyrimidine-3-carboxamide] | 3.6 | – | 1.6 | 780
O=C(Nc1c[nH]nc1-c1cc(Oc2cccc(CNCCO)c2)ccc1OC(F)F)c1cnn2cccnc12 [Example 16, N-[3-[2-(difluoromethoxy)-5-[3-[(2-hydroxyethylamino)methyl]phenoxy]phenyl]-1H-pyrazol-4-yl]pyrazolo[1,5-a]pyrimidine-3-carboxamide] | 0.22 | 170 | 0.19 | –
Cn1cc(NC(=O)c2cnn3cccnc23)c(-c2cc(Oc3cccc(CN[C@H]4C[C@H](O)C4)c3)ccc2OC(F)F)n1 [Example 72, N-[3-[2-(difluoromethoxy)-5-[3-[[(3-hydroxycyclobutyl)amino]methyl]phenoxy]phenyl]-1-methyl-pyrazol-4-yl]pyrazolo[1,5-a]pyrimidine-3-carboxamide] | 0.91 | 62 | 0.74 | –
CN1CC(O)(c2cc(Oc3ccc(OC(F)F)c(-c4nn(C)cc4NC(=O)c4cnn5cccnc45)c3)ccc2F)C1 [Example 104, N-[3-[2-(difluoromethoxy)-5-[4-fluoro-3-(3-hydroxy-1-methyl-azetidin-3-yl)phenoxy]phenyl]-1-methyl-pyrazol-4-yl]pyrazolo[1,5-a]pyrimidine-3-carboxamide] | 0.73 | 45 | 0.75 | –
Cn1cc(NC(=O)c2cnn3cccnc23)c(-c2cc(Oc3cc(Cl)cc(C4(O)CNC4)c3)ccc2OC(F)F)n1 [Example 99, N-[3-[5-[3-chloro-5-(3-hydroxyazetidin-3-yl)phenoxy]-2-(difluoromethoxy)phenyl]-1-methyl-pyrazol-4-yl]pyrazolo[1,5-a]pyrimidine-3-carboxamide] | 0.19 | 78 | 0.31 | –
Cn1cc(NC(=O)c2cnn3cccnc23)c(-c2cc(Oc3cnn(C4CC(O)C4)c3)ccc2OC(F)F)n1 (stereo not drawn) [Example 118, N-[3-[2-(difluoromethoxy)-5-[1-(3-hydroxycyclobutyl)pyrazol-4-yl]oxy-phenyl]-1-methyl-pyrazol-4-yl]pyrazolo[1,5-a]pyrimidine-3-carboxamide] | 0.43 | 48 | 0.5 | –
Cn1cc(NC(=O)c2cnn3cccnc23)c(-c2cc(Oc3ccc(CN4CCC4CO)cc3)ccc2OC(F)F)n1 (racemic) [Example 169, N-[3-[2-(difluoromethoxy)-5-[4-[[rac-(2R)-2-(hydroxymethyl)azetidin-1-yl]methyl]phenoxy]phenyl]-1-methyl-pyrazol-4-yl]pyrazolo[1,5-a]pyrimidine-3-carboxamide] | 1.2 | – | 0.68 | 29
CN1CCN(C(=O)Cc2ccc(Oc3ccc(OC(F)F)c(-c4nn(C)cc4NC(=O)c4cnn5cccnc45)c3)cc2)CC1 [Example 146, N-[3-[2-(difluoromethoxy)-5-[4-[2-(4-methylpiperazin-1-yl)-2-oxo-ethyl]phenoxy]phenyl]-1-methyl-pyrazol-4-yl]pyrazolo[1,5-a]pyrimidine-3-carboxamide] | 0.62 | 40 | 0.29 | –
O=C(Nc1c[nH]nc1-c1cc(Oc2cccc(C3CNCCO3)c2)ccc1OC(F)F)c1cnn2cccnc12 (stereo not drawn) [Example 9, N-[3-[2-(difluoromethoxy)-5-(3-morpholin-2-ylphenoxy)phenyl]-1H-pyrazol-4-yl]pyrazolo[1,5-a]pyrimidine-3-carboxamide] | 0.34 | 93 | 0.36 | –
Cn1cc(NC(=O)c2cnn3cccnc23)c(-c2cc(Oc3cccc(CN)c3)ccc2OC(F)F)n1 [Example 13, N-[3-[5-[3-(aminomethyl)phenoxy]-2-(difluoromethoxy)phenyl]-1-methyl-pyrazol-4-yl]pyrazolo[1,5-a]pyrimidine-3-carboxamide] | 0.21 | 13 | 0.43 | –
CN(C)[C@H]1CCN(C(=O)c2cccc(Oc3ccc(OC(F)F)c(-c4nn(C)cc4NC(=O)c4cnn5cccnc45)c3)c2)C1 (racemic) [Example 210, N-[3-[2-(difluoromethoxy)-5-[3-[rac-(3R)-3-(dimethylamino)pyrrolidine-1-carbonyl]phenoxy]phenyl]-1-methyl-pyrazol-4-yl]pyrazolo[1,5-a]pyrimidine-3-carboxamide] | 1.1 | 50 | 0.95 | –
CNC(=O)c1ccc(Oc2ccc(OC(F)F)c(-c3nn(C)cc3NC(=O)c3cnn4cccnc34)c2)cc1 [Example 131, N-[3-[2-(difluoromethoxy)-5-[4-(methylcarbamoyl)phenoxy]phenyl]-1-methyl-pyrazol-4-yl]pyrazolo[1,5-a]pyrimidine-3-carboxamide] | 0.41 | 23 | 0.24 | –
Cn1cc(NC(=O)c2cnn3cccnc23)c(-c2cc(Oc3cnn(C4CNCC4O)c3)ccc2OC(F)F)n1 (stereo not drawn) [Example 176, N-[3-[2-(difluoromethoxy)-5-[1-(4-hydroxypyrrolidin-3-yl)pyrazol-4-yl]oxy-phenyl]-1-methyl-pyrazol-4-yl]pyrazolo[1,5-a]pyrimidine-3-carboxamide] | 0.25 | 210 | 0.21 | –
Cn1cc(NC(=O)c2cnn3cccnc23)c(-c2cc(Oc3ccc(CN4CCCC4CO)cc3)ccc2OC(F)F)n1 (racemic) [Example 165, N-[3-[2-(difluoromethoxy)-5-[4-[[rac-(2S)-2-(hydroxymethyl)pyrrolidin-1-yl]methyl]phenoxy]phenyl]-1-methyl-pyrazol-4-yl]pyrazolo[1,5-a]pyrimidine-3-carboxamide] | 1.7 | 31 | 0.56 | –
Cn1cc(NC(=O)c2cnn3cccnc23)c(-c2cc(Oc3cccc(C(=O)N4CCC(N5CCOCC5)CC4)c3)ccc2OC(F)F)n1 [Example 81, N-[3-[2-(difluoromethoxy)-5-[3-(4-morpholinopiperidine-1-carbonyl)phenoxy]phenyl]-1-methyl-pyrazol-4-yl]pyrazolo[1,5-a]pyrimidine-3-carboxamide] | 0.47 | 26 | 0.48 | –
CNCc1cccc(Oc2ccc(OC(F)F)c(-c3n[nH]cc3NC(=O)c3cnn4cccnc34)c2)c1 [Example 15, N-[3-[2-(difluoromethoxy)-5-[3-(methylaminomethyl)phenoxy]phenyl]-1H-pyrazol-4-yl]pyrazolo[1,5-a]pyrimidine-3-carboxamide] | 0.32 | 24 | 0.4 | –
CN(C)CCn1cc(Oc2ccc(OC(F)F)c(-c3nn(C)cc3NC(=O)c3cnn4cccnc34)c2)cn1 [Example 73, N-[3-[2-(difluoromethoxy)-5-[1-[2-(dimethylamino)ethyl]pyrazol-4-yl]oxy-phenyl]-1-methyl-pyrazol-4-yl]pyrazolo[1,5-a]pyrimidine-3-carboxamide] | 1.6 | 95 | 1.7 | –
